Results from patent US7253286B2, “Nitrogen-containing aromatic derivatives” (Eisai Co., Ltd, priority 2000, dated 2007).
pIC50: −log10 of the molar value.

Biological target: T1, VEGFR2 (Homo sapiens, UniProt P35968)
T1 construct: coding for the cytoplasmic domain, beginning with lysine 791 and including the termination codon; made in house; host or cells: Sf9 insect cells (baculovirus, pFastBacHis)
Experiment: Inhibition against VEGFR2 kinase (receptor tyrosine kinase activity, HTRF method)
Format: biochemical
Details: His6-VEGFR2 cytoplasmic domain, biotin-poly(GT) substrate, ATP, 30° C. 10 minutes, read-out: IC50 (concentration required for 50% inhibition of VEGFR2 kinase activity)
Source text: Measurement of Inhibition Against Receptor Tyrosine Kinase Activity
This assay is used to determine inhibition of a test substance on tyrosine kinase activity. DNA coding for the cytoplasmic domain of VEGFR2 is obtained by total cDNA synthesis (Edwards M, International Biotechnology Lab 5(3), 19–25, 1987) or by cloning. Expression in an appropriate expression system can produce a polypeptide with tyrosine kinase activity. […] For VEGFR2 (Genbank Accession No. L04947), the 1.7 kb DNA fragment described by Terman et al. (Oncogene, 6(9), 1677–1683, 1991), coding for the cytoplasmic domain, beginning with lysine 791 and including the termination codon, was isolated from a human placental cDNA library (purchased from Clontech Laboratories, Inc.) and cloned in a Baculovirus expression vector (pFastBacHis, purchased from GIBCO BRL) The recombinant construct was transfected into insect cells (Spondoptea frugiperda9 (Sf9)) to prepare a recombinant Baculovirus. (Instructions for preparation and use of recombinant Baculovirus maybe found in standard texts, such as “Bac-To-Bac Baculovirus Expression System” (GIBCO BRL).) The cytoplasmic fragment starting from lysine 398 (FGFR1, Genbank Accession No. X52833), the cytoplasmic fragment starting from lysine 558 (PDGFRβ, Genbank Accession No. M21616) or the cytoplasmic fragment starting from lysine 974 (HGFR, Genbank Accession No. J02958) may be cloned and expressed by the same method for use in assays for other tyrosine kinases. EGFR was purchased from Sigma Co. (Product No. E-2645).
For expression of the VEGFR2 tyrosine kinase, Sf9 cells were infected with the VEGFR2 recombinant virus and collected after 48 hours. The collected cells were rinsed with ice-cooled phosphate buffered saline (PBS) and then resuspended using 20 ml of ice-cooled Lysis Buffer (50 mM Tris-HCl (pH 8.5), 5 mM 2-mercaptoethanol, 100 mM KCl, 1 mM phenylmethylsulfonyl fluoride, 1% (v/v) NP-40) per 1.5×10^8 cells. The suspension was centrifuged at 12,000 rpm for 30 minutes at 4° C. and the supernatant was obtained.
The supernatant was added to a Ni—NTA agarose column (3 ml, purchased from Qiagen) equilibrated with Buffer A {20 mM Tris-HCl (pH 8.5), 5 mM 2-mercaptoethanol, 500 mM KCl, 20 mM imidazole, 10% (v/v) glycerol}. The column was washed with 30 ml of Buffer A, and then with 6 ml of Buffer B {20 mM Tris-HCl (pH 8.5), 5 mM 2-mercaptoethanol, 1M KCl, 10% (v/v) glycerol}, and finally with 6 ml of Buffer A. After washing, it was eluted with 6 ml of Buffer C {20 mM Tris-HCl (pH8.5), 5mM2-mercaptoethanol, 100 mMKCl, 100 mM imidazole, 10% (v/v) glycerol}. The eluate was placed on a dialysis membrane (purchased from Spectrum Laboratories) and dialyzed with a dialysis buffer {20 mM Tris-HCl (pH 7.5), 10% (v/v) glycerol, 1 mM dithiothreitol, 0.1 mM Na3VO4, 0.1 mM EGTA}. After dialysis, it was supplied for SDS-electrophoresis, and the recombinant protein (His6-VEGFR2, cytoplasmic domain of VEGFR2 fused with 6 histidine residues at the N-terminus) detected at a molecular weight of approximately 100 kDa with Coumassie Brilliant Blue staining was assayed using BSA (bovine serum albumin, purchased from Sigma Co.) as the standard substance, and stored at −80° C. until use. Using the same method for the cytoplasmic domains of FGFR1, PDGFRβ and HGFR yielded respective recombinant proteins fused with 6 histidine residues at the N-termini (His6-FGFR1, His6-PDGFRβ or His6-HGFR).
The tyrosine kinase reaction was conducted as follows. […]

T1 sequence (P35968 786-1356 limits assumed): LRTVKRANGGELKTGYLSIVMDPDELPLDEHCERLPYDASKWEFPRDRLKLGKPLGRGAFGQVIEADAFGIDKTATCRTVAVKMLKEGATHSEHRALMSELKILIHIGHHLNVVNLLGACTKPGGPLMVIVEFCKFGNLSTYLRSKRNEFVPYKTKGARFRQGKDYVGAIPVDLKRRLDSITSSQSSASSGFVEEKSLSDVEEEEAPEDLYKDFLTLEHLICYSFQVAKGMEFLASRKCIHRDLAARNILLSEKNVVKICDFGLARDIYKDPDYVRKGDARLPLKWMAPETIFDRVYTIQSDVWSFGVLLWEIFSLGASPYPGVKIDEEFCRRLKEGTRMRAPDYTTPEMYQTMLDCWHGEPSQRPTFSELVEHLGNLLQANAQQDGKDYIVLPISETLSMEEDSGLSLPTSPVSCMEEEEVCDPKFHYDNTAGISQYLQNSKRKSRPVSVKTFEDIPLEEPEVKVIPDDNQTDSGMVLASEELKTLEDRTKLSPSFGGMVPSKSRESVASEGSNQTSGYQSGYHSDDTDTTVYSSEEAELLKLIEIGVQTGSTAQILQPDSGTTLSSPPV

Row | pIC50 | SMILES
1 | 8.31 | COCCOc1cc2nccc(Oc3ccc(NC(=O)Nc4ccc(F)cc4)cc3)c2cc1C#N [Example 10, N-(4-(6-cyano-7-(2-methoxyethoxy)-4-quinolyl)oxyphenyl)-N′-(4-fluorophenyl)urea]
2 | 8.57 | COCCOc1cc2nccc(Oc3ccc(NC(=O)Nc4cccc(OC)c4)cc3)c2cc1C#N [Example 14, N-(4-(6-Cyano-7-(2-methoxyethoxy)-4-quinolyl)oxyphenyl)-N′-(3-methoxyphenyl)urea]
3 | 8.06 | COCCOc1cc2nccc(Oc3ccc(NC(=O)Nc4cccc(O)c4)cc3)c2cc1C#N [Example 15, N-(4-(6-Cyano-7-(2-methoxyethoxy)-4-quinolyl)oxyphenyl)-N′-(3-hydroxyphenyl)urea]
4 | 8.37 | COCCOc1cc2nccc(Oc3ccc(NC(=O)Nc4cccc(S(C)(=O)=O)c4)cc3)c2cc1C#N [Example 21, N-(4-(6-Cyano-7-(2-methoxyethoxy)-4-quinolyl)oxyphenyl)-N′-(3-(methylsulfonyl)phenyl)urea]
5 | 7.66 | CCN(CC)CCCOc1cc2nccc(Oc3ccc(NC(=O)Nc4ccc(F)cc4)cc3)c2cc1C#N [Example 30, N-(4-(6-Cyano-7-(3-(diethylamino)propoxy)-4-quinolyloxy)phenyl)-N′-(4-fluorophenyl)urea]
6 | 7.77 | N#Cc1cc2c(Oc3ccc(NC(=O)Nc4ccc(F)cc4)cc3)ccnc2cc1OCCCN1CCOCC1 [Example 31]
7 | 8.16 | COCCOc1cc2nccc(Oc3ccc(NC(=O)Nc4cccc(SC)c4)c(F)c3)c2cc1C#N [Example 33, N-(4-(6-Cyano-7-(2-methoxyethoxy)-4-quinolyl)oxy-2-fluorophenyl)-N′-(3-(methylsulfanyl)phenyl)urea]
8 | 8.47 | COCCOc1cc2nccc(Oc3ccc(NC(=O)Nc4cccc(S(C)(=O)=O)c4)c(F)c3)c2cc1C#N [Example 34, N-(4-(6-Cyano-7-(2-methoxyethoxy)-4-quinolyl)oxy-2-fluorophenyl)-N′-(3-(methylsulfonyl)phenyl)urea]
9 | 7.85 | COc1cc2nccc(Oc3ccc(NC(=O)Nc4ccc(F)cc4F)cc3)c2cc1C#N [Example 36, N-(4-(6-Cyano-7-methoxy-4-quinolyl)oxyphenyl)-N′-(2,4-difluorophenyl)urea]
10 | 7.66 | COc1cc2nccc(Oc3ccc(NC(=O)Nc4ccccc4)cc3)c2cc1C#N [Example 37, N-[4-(6-cyano-7-methoxyquinolin-4-yloxy)phenyl]-N′-phenylurea]
11 | 7.82 | N#Cc1cc2c(Oc3ccc(NC(=O)Nc4ccc(F)cc4F)c(F)c3)ccnc2cc1OCCN1CCOCC1 [Example 54, N-(4-(6-Cyano-7-(2-(4-morpholino)ethoxy)-4-quinolyl)oxy-2-fluorophenyl)-N′-(2,4-difluorophenyl)urea]
12 | 8.07 | COCCOc1cc2nccc(Oc3ccc(NC(=O)Nc4ccccc4)c(F)c3)c2cc1C#N [Example 99, N-(4-(6-Cyano-7-(2-methoxyethoxy)-4-quinolyl)oxy-2-fluorophenyl)-N′-phenylurea]
13 | 7.68 | CS(=O)(=O)NCCCOc1cc2nccc(Oc3ccc(NC(=O)Nc4ccc(F)cc4)c(F)c3)c2cc1C#N [Example 111, N-(3-(6-Cyano-4-(3-fluoro-4-((4-fluoroanilino)carbonyl)aminophenoxy)-7-quinolyl)oxypropyl)methanesulfonamide]
14 | 6.45 | O=C(Nc1ccc(Oc2ncnc3[nH]c(-c4ccccc4)cc23)cc1)NC1CC1 [Example 173, 1-Cyclopropyl-3-[4-(6-phenyl-7H-pyrrolo[2,3-d]pyrimidin-4-yloxy)phenyl]urea]
15 | 7.92 | CCNC(=O)n1ccc2cc(Oc3ncnc4[nH]c(-c5ccc(O)cc5)cc34)ccc21 [Example 178, 5-[6-(4-Hydroxyphenyl)-7H-pyrrolo[2,3-d]pyrimidin-4-yloxy]indole-1-carboxylic ethylamide]
16 | 7.15 | O=C1CCc2c(Oc3ccc(NC(=O)Nc4ccc(F)cc4)cc3)ccnc2N1 [Example 182, N-(4-Fluorophenyl)-N′-{4-[(7-oxo-5,6,7,8-tetrahydro[1,8]naphthyridin-4-yl)oxy]phenyl}urea]
17 | 7.54 | O=C(Nc1ccc(F)cc1)Nc1ccc(Oc2ccnc3[nH]c(=O)ccc23)cc1 [Example 183, N-(4-Fluorophenyl)-N′-{4-[(7-oxo-7,8-dihydro[1,8]naphthyridin-4-yl)oxy]phenyl}urea]
18 | 7.23 | CCOC(=O)/C=C/c1c(Oc2ccc(NC(=O)Nc3ccc(F)cc3)cc2)ccnc1NC(=O)C1CC1 [Example 184, Ethyl(E)-3-[2-[(cyclopropylcarbonyl)amino]-4-(4-{[(4-fluoroanilino)carbonyl]amino}phenoxy)-3-pyridyl]-2-propenoate]
19 | 7.85 | O=C(CCCN1CCC(O)CC1)Nc1cc(Oc2ccc3c(ccn3C(=O)NC3CC3)c2)ccn1 [Example 187, N1-Cyclopropyl-5-[(2-{[4-(4-hydroxypiperidino)butanoyl]amino}-4-pyridyl)oxy]-1H-1-indolecarboxamide]
20 | 8.04 | O=C(Nc1ccc(Oc2ccnc(NC(=O)C3CC3)c2)cc1Cl)NC1CC1 [Example 208]
21 | 7.51 | COCCOc1cc2nccc(Sc3ccc(NC(=O)Nc4nccs4)s3)c2cc1C#N [Example 252, 1-{5-[6-Cyano-7-(2-methoxyethoxy)-quinolin-4-ylsulfanyl]-thiophen-2-yl}-3-(thiazol-2-yl)urea]
22 | 7.80 | COCCOc1cc2nccc(Sc3ccc(NC(=O)Nc4ccc(C)cc4)s3)c2cc1C#N [Example 259, 1-{5-[6-Cyano-7-(2-methoxyethoxy)quinolin-4-ylsulfanyl]thiophen-2-yl}-3-(para-tolyl)urea]
23 | 7.96 | COCCOc1cc2nccc(Sc3ccc(NC(=O)Nc4cccc(C#N)c4)s3)c2cc1C#N [Example 260, 1-{5-[6-Cyano-7-(2-methoxyethoxy)quinolin-4-ylsulfanyl]-thiophen-2-yl}-3-(3-cyanophenyl)-urea]
24 | 8.02 | COCCOc1cc2nccc(Oc3ccc(NC(=O)NC4CC4)c(Cl)c3)c2cc1C#N [Example 262]
25 | 7.37 | COc1cc2nccc(Oc3ccc(N(C)C(=O)NC4CC4)cc3)c2cc1C(N)=O [Example 350, 4-(4-(Cyclopropylaminocarbonyl)-4-methylaminophenoxy)-7-methoxy-6-quinolinecarboxamide]
26 | 8.66 | COc1cc2nccc(Oc3ccc(NC(=O)NCCCSC)c(F)c3)c2cc1C(N)=O [Example 353, 4-(3-Fluoro-4-((3-methylthiopropylamino)carbonyl)aminophenoxy)-7-methoxy-6-quinolinecarboxamide]
27 | 8.09 | COCCOc1cc2nccc(Oc3ccc(NC(=O)NCCF)c(F)c3)c2cc1C(N)=O [Example 364, 4-(4-(3-Fluoro(2-fluoroethylamino)carbonyl)aminophenoxy)-7-(2-methoxyethoxy)-6-quinolinecarboxamide]
28 | 8.27 | COCCOc1cc2nccc(Oc3ccc(NC(=O)NCCCF)c(F)c3)c2cc1C(N)=O [Example 365]
29 | 7.80 | NC(=O)c1cc2c(Oc3ccc(NC(=O)NC4CC4)c(F)c3)ccnc2cc1OCCN1CCOCC1 [Example 375, 4-(4-(Cyclopropylaminocarbonyl)amino-3-fluorophenoxy)-7-(2-(4-morpholino)ethoxy)-6-quinolinecarboxamide]
30 | 8.39 | NC(=O)c1cc2c(Oc3ccc(NC(=O)NC4CC4)c(Cl)c3)ccnc2cc1OCCCO [Example 387, 4-(3-Chloro-4-(cyclopropylaminocarbonyl)aminophenoxy)-7-(3-hydroxypropoxy)-6-quinolinecarboxamide]
